Data from ChEMBL document CHEMBL1201862, “PubChem BioAssay data set” (2004).
The source made the active and inactive calls.

How the values were obtained:
HEK293 [1] = assay: cells; assay type: functional, cell-based; settings: Homo sapiens
HEK293 [2] = assay: cells; assay type: functional, cell-based; settings: Homo sapiens; remark: listed apart in the source
HEK293 [3] = assay: inhibition of NOD1-driven NF-kB reporter – cell-based, luminescence, uHTS, primary screen (AID 1578); assay type: functional; settings: Homo sapiens
HEK293 [4] = assay: NOD2 signaling inhibitors in MDP-stimulated cells, cell-based, uHTS, luminescence (AID 2001); assay type: functional; settings: Homo sapiens
[5] = biological target: Heat shock protein HSP 90-alpha (Homo sapiens, UniProt P07900); assay type: functional, organism-based
[6] = Luminescence Cell-Based Dose Retest to Confirm Inhibitors of Cancer Stem Cells. [Related pubchem assays (depositor defined):AID2717, AID2721]; assay type: functional; settings: Homo sapiens
[7] = biological target: T1, Endoribonuclease toxin MazF (Escherichia coli K-12, UniProt P0AE70); assay: activation of MazEF endoribonuclease cleavage – biochemical, fluorescence, single-stranded RNA substrate, uHTS hits, dose response (AID 588481); assay type: functional
T1 sequence (P0AE70 whole entry): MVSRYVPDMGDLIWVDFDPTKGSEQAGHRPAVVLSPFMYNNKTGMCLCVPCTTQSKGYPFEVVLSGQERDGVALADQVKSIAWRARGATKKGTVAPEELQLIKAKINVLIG

[8] = biological target: T1, Endoribonuclease toxin MazF; assay: substrate-only fluorescence increase artefacts – biochemical, single-stranded RNase substrate, counter-screen for MazEF activator project, dose response (AID 588502); assay type: functional
[9] = Trypanosoma cruzi growth suppression in host cells – NIH3T3 host cells, beta-gal luminescence, confirmation (AID 2044); assay type: functional, cell-based;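 note: intracellular parasites grown in NIH/3T3 mouse fibroblasts as host cells; luminescent beta-galactosidase reporter signal from transgenic T. cruzi replicating inside host cells; inhibitors lower the luminescence signal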
[10] = biological target: T2, Short transient receptor potential channel 4 (Mus musculus, UniProt Q9QUQ5); assay: calcium entry via TRPC4 opening agents – cell-based, HEK293 TRPC4/mu-opioid, Fluo-4 calcium, dose response (AID 434937); assay type: functional
T2 sequence (Q9QUQ5 whole entry): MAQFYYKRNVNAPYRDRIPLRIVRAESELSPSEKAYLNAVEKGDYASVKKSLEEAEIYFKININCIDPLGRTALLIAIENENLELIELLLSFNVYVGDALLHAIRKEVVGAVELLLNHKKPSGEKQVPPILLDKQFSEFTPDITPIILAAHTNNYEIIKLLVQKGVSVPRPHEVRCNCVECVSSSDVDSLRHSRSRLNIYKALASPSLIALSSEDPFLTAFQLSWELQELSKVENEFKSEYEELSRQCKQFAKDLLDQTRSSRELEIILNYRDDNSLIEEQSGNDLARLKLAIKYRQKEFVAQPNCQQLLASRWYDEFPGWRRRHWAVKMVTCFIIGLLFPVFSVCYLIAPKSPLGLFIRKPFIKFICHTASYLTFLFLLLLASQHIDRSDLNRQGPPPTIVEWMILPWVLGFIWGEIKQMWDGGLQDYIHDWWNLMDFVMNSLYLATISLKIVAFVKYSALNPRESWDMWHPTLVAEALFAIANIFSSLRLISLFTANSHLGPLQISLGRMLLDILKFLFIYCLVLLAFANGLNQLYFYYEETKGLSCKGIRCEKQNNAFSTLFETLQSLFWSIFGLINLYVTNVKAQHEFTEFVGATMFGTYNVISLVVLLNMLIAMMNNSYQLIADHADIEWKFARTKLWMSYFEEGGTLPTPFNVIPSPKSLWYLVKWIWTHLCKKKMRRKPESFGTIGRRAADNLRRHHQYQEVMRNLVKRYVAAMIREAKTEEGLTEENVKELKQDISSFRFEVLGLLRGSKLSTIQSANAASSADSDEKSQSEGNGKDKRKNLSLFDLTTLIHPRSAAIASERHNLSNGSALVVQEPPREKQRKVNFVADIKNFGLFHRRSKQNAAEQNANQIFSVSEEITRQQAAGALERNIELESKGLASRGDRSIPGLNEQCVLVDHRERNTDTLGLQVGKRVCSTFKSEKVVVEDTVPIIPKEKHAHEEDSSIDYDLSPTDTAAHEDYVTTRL

[11] = NIH3T3 cell viability loss – ATP luminescence, mouse fibroblasts, counter-screen, dose response (AID 2010); assay type: functional, cell-based;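 note: cells exposed to compound for about 90 hours before reading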
cells [12] = assay: cells
[13] = viability of uninfected HEp-2 cells – cell-based, HTS, cytotoxicity control for RSV inhibitor project, dose response (AID 2410); assay type: functional; settings: human respiratory syncytial virus
CAAX prenyl protease 2 = biological target: T3, CAAX prenyl protease 2 (Homo sapiens, UniProt Q9Y256); assay: inhibition of Ras-converting CAAX protease Rce1 – biochemical, yeast membranes, quenched-peptide fluorescence, cherry-pick, dose response (AID 588849)
T3 sequence (Q9Y256 whole entry): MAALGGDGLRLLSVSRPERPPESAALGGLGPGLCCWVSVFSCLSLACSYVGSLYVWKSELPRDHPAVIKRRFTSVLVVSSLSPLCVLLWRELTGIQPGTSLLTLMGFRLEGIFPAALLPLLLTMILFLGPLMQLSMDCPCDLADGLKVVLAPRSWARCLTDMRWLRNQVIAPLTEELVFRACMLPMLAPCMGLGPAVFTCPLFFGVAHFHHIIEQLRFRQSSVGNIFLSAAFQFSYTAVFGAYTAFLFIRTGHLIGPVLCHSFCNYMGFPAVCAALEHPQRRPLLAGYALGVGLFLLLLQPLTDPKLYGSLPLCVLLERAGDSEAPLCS

Trypsin = Trypsin (Sus scrofa, UniProt P00761); assay: trypsin protease activity blockade – biochemical, quenched peptide fluorescence, cherry-pick, selectivity assay for Rce1 protease inhibitor project, dose response (AID 488789)
H4 = assay: Luminescence Cell-Based Dose Response HTS to Identify Activators of 5'UTR Stem-Loop Driven Prion Protein mRNA Translation in H4 Neuroglioblastoma Cells. [Related pubchem assays: 1829 (Project Summary), 1814 (Primary HTS)]; assay type: functional; settings: Homo sapiens
cells [14] = assay type: functional, cell-based
Vero [15] = assay: cells; assay type: functional; settings: Chlorocebus sabaeus
[16] = Luminescence Cell-Based Dose Confirmation HTS to Identify Activators of 5'UTR Stem-Loop Driven Alpha-Synuclein mRNA Translation in H4 Neuroglioblastoma Cells. [Related pubchem assays: 1829 (Project Summary), 1814 (Primary HTS)]; assay type: functional
[17] = Luminescence Cell-Based Dose Response HTS to Identify Activators of Luciferase Translation or Activity in H4 […] Cells. [Related pubchem assays: 1829 (Project Summary), 1814 (Primary HTS)]; assay type: functional
Vero [18] = assay: cells; assay type: functional, cell-based; settings: Chlorocebus sabaeus
cells [19] = assay type: functional, cell-based; remark: listed apart in the source
[20] = microbe, parasite or virus in culture; assay type: functional; settings: Mycobacterium tuberculosis

Trypsin, sequence (P00761 whole entry): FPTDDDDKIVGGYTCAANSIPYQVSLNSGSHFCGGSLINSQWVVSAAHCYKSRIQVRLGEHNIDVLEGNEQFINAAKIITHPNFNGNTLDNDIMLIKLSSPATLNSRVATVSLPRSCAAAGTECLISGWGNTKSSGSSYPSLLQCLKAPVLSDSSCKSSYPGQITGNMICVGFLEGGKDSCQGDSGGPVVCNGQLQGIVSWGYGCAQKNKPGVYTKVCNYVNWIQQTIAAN

Q: With `CCOC(=O)C(=Cc1ccc(-n2cncn2)cc1)C(=O)OCC` as the compound, how does the IC50 (HEK293 [1]) read?
A: 5.19 µM (active)

Q: What about the IC50 (HEK293 [2]) of the same compound?
A: > 20 µM (inactive)

Q: And the EC50 (HEK293 [3])?
A: > 20 µM (inactive)

Q: And the IC50 (HEK293 [4])?
A: 10.9 µM (inactive)

Q: And the AC50 [5]?
A: 7.37 µM (active)

Q: What about the AC50 [6] of the same compound?
A: 3.47 µM (active)

Q: Which EC50 [7] does the source give for `Cc1ccc(S(=O)(=O)NN)c(C)c1N1CCCC1=O` here?
A: 58.2 µM (inactive)

Q: What about the EC50 [8] of the same compound?
A: 10.6 µM (active)

Q: With `CN(C)CCCN(C(=O)c1ccc(S(=O)(=O)N2CCOCC2)cc1)c1nc2ccc(F)cc2s1` as the compound, how does the EC50 [9] read?
A: < 0.1 µM (active)

Q: And the EC50 [10]?
A: 9.44 µM (active)

Q: And the EC50 [11]?
A: > 30 µM (not active)

Q: What about the EC50 (cells [12]) of the same compound?
A: 0.02 µM (active)

Q: Which results are given for `Cc1ccc([N+](=O)[O-])cc1N/C=C1\CCCCC1=O`?
A: EC50 [7]: > 99 µM (inactive); EC50 [8]: > 99 µM (inactive); CC50 [13]: 18.4 µM (active)

Q: With `Nc1ccccc1Oc1ccc2ccccc2c1` as the compound, how does the AC50 (CAAX prenyl protease 2) read?
A: 5.84 µM (active)

Q: What about the AC50 (Trypsin) of the same compound?
A: 6.89 µM (active)

Q: For `CCOC(=O)C(=Cc1ccc(OCc2ccc([N+](=O)[O-])cc2)c(OC)c1)C(=O)OCC`, which IC50 (HEK293 [1]) is on record?
A: 2.07 µM (active)

Q: What about the IC50 (HEK293 [2]) of the same compound?
A: 12.8 µM (active)

Q: What about the EC50 (H4) of the same compound?
A: 0.246 µM (active)

Q: What about the EC50 (HEK293 [3]) of the same compound?
A: 10.6 µM (active)

Q: What about the EC50 (cells [14]) of the same compound?
A: 70 µM (active)

Q: What about the IC50 (HEK293 [4]) of the same compound?
A: 5.14 µM (active)

Q: What about the CC50 (Vero [15]) of the same compound?
A: 9.93 µM (active)

Q: What about the EC50 [16] of the same compound?
A: 0.171 µM (active)

Q: What about the EC50 [17] of the same compound?
A: 1.18 µM (active)

Q: And the IC50 (Vero [18])?
A: > 25 µM (active)

Q: And the AC50 [6]?
A: 1.79 µM (active)

Q: And the EC50 (cells [19])?
A: > 350 µM (not active)

Q: For `O=C(Nc1nnc(-c2ccccc2Cl)o1)c1nc2ccccc2s1`, which EC50 [10] is on record?
A: 4.73 µM (active)

Q: And the CC50 [20]?
A: > 40 µM (active)
